Laboratory results reported in US9295754B2, “Noggin inhibitory compositions for ossification and methods related thereto” (Emory University, priority 2011, dated 2016).
Where a chain is given by its changes, count along the chain named.

Experiments:
endogenous Noggin = molecular target: T1, endogenous Noggin (Mus musculus, UniProt P97466); assay: BMP-induced ALP activity in C2C12 cells without exogenously added Noggin; type: cell-based; conditions: absence of exogenously added Noggin, FIG. 8
T1 construct: in the absence of exogenously added Noggin in C2C12 cells; endogenous in cells; host or cells: mouse C2C12 cells (ATCC)
T1 sequence (P97466 28-232): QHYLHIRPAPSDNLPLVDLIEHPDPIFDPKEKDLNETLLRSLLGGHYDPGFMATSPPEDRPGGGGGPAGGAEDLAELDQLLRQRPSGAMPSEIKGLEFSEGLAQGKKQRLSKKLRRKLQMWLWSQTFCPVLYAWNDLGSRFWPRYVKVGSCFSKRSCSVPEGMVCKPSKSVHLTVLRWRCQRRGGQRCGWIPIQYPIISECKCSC
Protocol: Mouse C2C12 cells and Dulbecco's modified Eagle's medium (DMEM) were purchased from ATCC (Manassas, Va.). The non-heat inactivated fetal bovine serum (FBS) was purchased from HyClone Laboratories, Inc. (Logan, Utah). The C2C12 cells at passages 4 to 7 were subcultured in T-75 cm2 flasks in DMEM supplemented with 10% FBS at 37° C. in 5% CO2 with humidification. When the flasks reached 80% confluence, the cells were trypsinized and seeded in triplicate at 200,000 cells/well in a 6-well plate for quantitative real-time RT-PCR and alkaline phosphatase (ALP) assays or at 50,000 cells/well in a 12-well plate for the dual-luciferase reporter assay.
The C2C12 cells were plated at 200,000 cells/well in 6-well plates and grown overnight in DMEM containing 10% FBS. On day 2, the culture medium was replaced with DMEM containing 2% FBS and the cells were treated with 100 ng/ml of BMP-2, +/−various concentrations of the Noggin-interacting compound, and +/−100 ng/ml of Noggin for 72 hours. […] The ALP activity was measured in triplicate using an ALP assay kit (Sigma-Aldrich, St. Louis, Mo.) in microtiter plates. The protein amount was determined with Bio-Rad protein assay reagent (Bio-Rad, Hercules, Calif.) using bovine serum albumin (BSA) as a standard. […]

Noggin = molecular target: T2, Noggin (Homo sapiens, UniProt Q13253); assay: in vitro cell-based screening assays (luciferase reporter and ALP assays in C2C12 cells); conditions: BMP-2 +/- Noggin, FIG. 2-5
T2 construct: host or cells: added to mouse C2C12 cells
T2 sequence (Q13253 28-232): T1 sequence (P97466 28-232) with P67A
Protocol: The known crystals structures of complexes of BMP-2/BMPR-IA, BMP7/Noggin and BMP-2/BMPR-IA/ActR-II and BMPR-II monomer structures were analyzed. Using these structures ternary complexes of BMP-2/BMPR-IA/BMPR-II and BMP-2/Noggin (from BMP7/Noggin) were modeled. Solvent accessibility of complexes and the monomers were computed to identify exact binding regions and the individual residues involved in binding. The entire 430 Å^2 surface area of Noggin that binds to BMP-2 and thus block binding of BMP to BMPR-IA and BMPR-II binding regions were analyzed. Complementary regions in BMP were also evaluated in extensive virtual screenings using LUDI docking procedures using CAP commercially available molecular databases.
Mouse C2C12 cells and Dulbecco's modified Eagle's medium (DMEM) were purchased from ATCC (Manassas, Va.). […] When the flasks reached 80% confluence, the cells were trypsinized and seeded in triplicate at 200,000 cells/well in a 6-well plate for quantitative real-time RT-PCR and alkaline phosphatase (ALP) assays or at 50,000 cells/well in a 12-well plate for the dual-luciferase reporter assay.
The C2C12 cells were plated at 200,000 cells/well in 6-well plates and grown overnight in DMEM containing 10% FBS. […] The ALP activity was measured in triplicate using an ALP assay kit (Sigma-Aldrich, St. Louis, Mo.) in microtiter plates. […]

bone growth = assay: Collagen disc implantation with Noggin-blockers and BMP-2 in rat ectopic model; type: in vivo, Harlan athymic rats; conditions: for Average / Results: 100ul, collagen carrier, chest implant, 4 weeks
Text: Harlan athymic rats about 5-6 weeks of age were chest implanted with a collegan disc and doses of N50 in combination with BMP-2. After 4 weeks the rats were sacrificed and evaluated for bone growth.

[1] = tested on: fetal rat calvarial osteoblast primary cell cultures; assay: BMP-induced bone nodules in fetal rat calvarial osteoblast primary cell cultures; type: cell-based; conditions: FIG. 6

| Noggin blocking (Noggin) | SMILES | function of endogenous Noggin / BMP-induced ALP activity (endogenous Noggin) | Average (bone growth; N50 4 mM + BMP-2 1.5 ug) | Results (bone growth; N50 4 mM + BMP-2 1.5 ug) | Average (bone growth; N50 4 mM + BMP-2 5 ug) | Results (bone growth; N50 4 mM + BMP-2 5 ug) | Average (bone growth; N50 8 mM + BMP-2 1.5 ug) | Results (bone growth; N50 8 mM + BMP-2 1.5 ug) | Average (bone growth; N50 8 mM + BMP-2 5 ug) | Results (bone growth; N50 8 mM + BMP-2 5 ug) | Average (bone growth; N50 12 mM + BMP-2 1.5 ug) | Results (bone growth; N50 12 mM + BMP-2 1.5 ug) | Average (bone growth; N50 12 mM + BMP-2 5 ug) | Results (bone growth; N50 12 mM + BMP-2 5 ug) | bone growth (bone growth; N50 in combination with BMP-2, after 4 weeks, certain doses) | BMP-induced bone nodules [1] |
| --- | --- | --- | --- | --- | --- | --- | --- | --- | --- | --- | --- | --- | --- | --- | --- | --- |
| – | Cc1ccc(C(C#N)=Cc2cccc([N+](=O)[O-])c2)cc1 [N50-083, 3-(3-nitrophenyl)-2-(p-tolyl)acrylonitrile] | blocks function of endogenous Noggin by potentiating BMP-induced ALP activity | – | – | – | – | – | – | – | – | – | – | – | – | – | – |
| confirmed Noggin blockers | Cc1cc(C)nc(NC(=O)c2sc3ccccc3c2Cl)c1 [N2, 3-chloro-N-(4,6-dimethylpyridin-2-yl)benzo[b]thiophene-2-carboxamide] | – | – | – | – | – | – | – | – | – | – | – | – | – | – | – |
| confirmed Noggin blockers | N#CC(=Cc1cccc(Cl)c1)c1ccccn1 (racemic) [N50, 3-(3-chlorophenyl)-2-(pyridin-2-yl)acrylonitrile] | – | 3 | Bone made (4 of 4) | 4.25 | Bone made (4 of 4) | 1.75 | Bone made (2 of 4) | 3.25 | Bone made (3 of 4) | 3.5 | Bone made (4 of 4) | 4.75 | Bone made (4 of 4) | Certain doses showed improvement | potentiation of BMP-induced bone nodules |
